From patent publication US9353141B2, “Galectoside inhibitors of galectins” (GALECTO BIOTECH AB, priority 2012, dated 2016)

Tests used:
[1] = biological target: T1, galectin-4 (C-terminal domain) (Homo sapiens, UniProt P56470); test: Fluorescence polarization-based galectin inhibition assay; type: binding; conditions: 20° C., read-out: Calculated Kd Galectin 4 (C-terminal domain)
T1 sequence (P56470 194-323 limits assumed): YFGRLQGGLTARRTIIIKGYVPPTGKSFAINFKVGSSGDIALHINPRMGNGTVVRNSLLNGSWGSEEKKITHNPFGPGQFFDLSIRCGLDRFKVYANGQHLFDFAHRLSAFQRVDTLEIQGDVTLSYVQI
Excerpt: (§1) Identification of the substances was made by HRMS (Micromass Q-tof micro) and NMR (Bruker Ultrashield 400 plus, 400 MHz). Chemical shifts are reported downfield from Me4Si using residual […] (7.26 ppm) or CHD2OD (3.35 ppm) as reference. Chemical shifts and coupling constants were obtained from ^1H-NMR and proton resonances were assigned from COSY experiments. Purification was made by RF-HPLC (Beckman, system gold) or flash chromatography, using silica gel (Davisil 35-70 μm, 60 Å). Reactions were followed by TLC (Aluminum sheet, silica gel 60 F254) visualized with UV light, H2SO4 (aq) or an iso-vanillin/H2SO4/EtOH development solution. THF and Et2O were dried over sodium/benzophenone and distilled. CH2Cl2 was dried by molecular sieves (4 Å, 1.6 mm). Other solvents and reagents were commercially available and used without further purifications. Fluorescence polarization experiments were performed on a PolarStar instrument (BMG, Offenburg; Germany). Evaluation of 20-34 as inhibitors of galectins was performed by use of fluorescence polarization as described in the literature (Sorme et al., 2003a, 2004). Galectin concentrations and fluorescent probe choice and concentrations were as described in Cumpstey et al. 2005a, except for galectin-3 for which the probe tdga-probe described in Salomonsson et al. 2010 was used at 20 nM together with galectin-3 at 200 nM concentrations. Each inhibitor was tested in duplicate at several concentrations between 4 and 0.25 μM. All fluorescence polarization experiments were conducted at 20° C., except galectin-7 for which experiments were conducted at 0° C.

[2] = biological target: galectin-7 (Homo sapiens, UniProt P47929); test: as above; type: binding; conditions: 0° C., read-out: Calculated Kd Galectin 7
Excerpt: as §1

[3] = biological target: T2, galectin-8 (N-terminal domain) (Homo sapiens, UniProt O00214); test: as above; type: binding; conditions: 20° C., read-out: Calculated Kd Galectin 8 (N-terminal domain)
T2 sequence (O00214 19-152 limits assumed): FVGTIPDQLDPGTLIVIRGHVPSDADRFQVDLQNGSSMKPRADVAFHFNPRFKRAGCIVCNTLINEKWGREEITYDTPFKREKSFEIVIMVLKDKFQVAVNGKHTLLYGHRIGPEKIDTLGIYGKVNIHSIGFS
Excerpt: as §1

[4] = biological target: galectin-9 (N-terminal domain) (Homo sapiens, UniProt O00182); test: as above; type: binding; conditions: 20° C., read-out: Calculated Kd Galectin 9 (N-terminal domain)
Excerpt: as §1

[5] = biological target: galectin-1 (Homo sapiens, UniProt P09382); test: as above; type: binding; conditions: 20° C., read-out: Calculated Kd Galectin 1
Excerpt: as §1

[6] = biological target: galectin-3 (Homo sapiens, UniProt P17931); test: as above; type: binding; conditions: 20° C., tdga-probe 20 nM, galectin-3 200 nM, read-out: Calculated Kd Galectin 3
Excerpt: as §1

[7] = biological target: galectin-9 (C-terminal domain) (Homo sapiens, UniProt O00182); test: as above; type: binding; conditions: 20° C., read-out: Calculated Kd Galectin 9 (C-terminal domain)
Excerpt: as §1

[8] = biological target: T3, galectin-4 (N-terminal domain) (Homo sapiens, UniProt P56470); test: as above; type: binding; conditions: fluorescence polarization, 20° C.; read-out: Calculated Kd Galectin 4 (N-terminal domain)
T3 sequence (P56470 19-150 limits assumed): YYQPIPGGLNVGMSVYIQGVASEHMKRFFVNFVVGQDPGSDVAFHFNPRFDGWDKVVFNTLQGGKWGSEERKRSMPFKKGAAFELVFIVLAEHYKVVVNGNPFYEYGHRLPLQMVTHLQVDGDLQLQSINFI
Excerpt: as §1

[9] = system: galectins; conditions: all galectins; cited from earlier work

galectin-9 (C-terminal domain), sequence (O00182 227-355 limits assumed, species assumed): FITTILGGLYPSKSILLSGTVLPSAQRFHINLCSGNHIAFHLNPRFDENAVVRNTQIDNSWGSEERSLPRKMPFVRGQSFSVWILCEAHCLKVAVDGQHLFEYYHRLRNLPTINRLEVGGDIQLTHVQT
galectin-7, sequence (P47929 whole entry, species assumed): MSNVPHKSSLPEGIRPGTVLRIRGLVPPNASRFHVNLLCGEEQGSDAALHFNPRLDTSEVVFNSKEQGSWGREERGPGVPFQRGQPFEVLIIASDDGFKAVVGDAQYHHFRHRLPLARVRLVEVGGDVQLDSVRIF
galectin-9 (N-terminal domain), sequence (O00182 17-148 limits assumed, species assumed): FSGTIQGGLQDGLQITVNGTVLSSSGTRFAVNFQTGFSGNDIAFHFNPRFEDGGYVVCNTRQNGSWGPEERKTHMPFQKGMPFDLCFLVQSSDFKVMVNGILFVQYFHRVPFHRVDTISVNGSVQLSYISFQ
galectin-3, sequence (P17931 whole entry, species assumed): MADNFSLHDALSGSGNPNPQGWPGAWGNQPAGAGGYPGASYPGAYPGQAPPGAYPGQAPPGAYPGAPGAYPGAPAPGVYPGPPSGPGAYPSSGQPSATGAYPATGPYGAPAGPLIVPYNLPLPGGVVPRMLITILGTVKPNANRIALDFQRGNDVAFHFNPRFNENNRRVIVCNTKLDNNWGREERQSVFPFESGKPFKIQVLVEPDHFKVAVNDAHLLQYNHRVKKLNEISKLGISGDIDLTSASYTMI
galectin-1, sequence (P09382 whole entry, species assumed): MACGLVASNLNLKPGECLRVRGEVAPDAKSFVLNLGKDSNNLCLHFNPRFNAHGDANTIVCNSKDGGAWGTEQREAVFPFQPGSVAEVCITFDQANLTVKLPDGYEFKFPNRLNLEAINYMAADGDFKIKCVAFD

COc1ccc2cc(CO[C@H]3[C@@H](O)[C@@H](CO)O[C@@H](S[C@@H]4O[C@H](CO)[C@H](O)[C@H](OCc5cc6ccc(OC)cc6oc5=O)[C@H]4O)[C@@H]3O)c(=O)oc2c1 [Compound 22, bis-{3-O-[(7-methoxy-2H-1-benzopyran-2-on-3-yl)-methyl]-β-D-galactopyranosyl}sulfane]
Kd [1]: > 500 µM
Kd [2]: 37 µM
Kd [3]: 85 µM
Kd [4]: 13 µM
Kd [5]: 9.9 µM
Kd [6]: 0.89 µM
Kd [7]: ~4 µM
Kd [8]: 130 µM

O=C[C@H](O)[C@@H](O)[C@@H](O)[C@H](O)CO [D-galactose]
affinity compared with lactose [9]: 50-100 times lower

OC[C@H]1O[C@@H](O[C@H]2[C@H](O)[C@@H](O)C(O)O[C@@H]2CO)[C@H](O)[C@@H](O)[C@H]1O (stereo partly shown) [lactose]
Kd [9]: 500 to 1000 µM
